Test results published in PMC4364445 (Chemical Science, 2015).

Legend:
male rats = conditions: intraperitoneal, ref [60]; cited from earlier work
cyt P450 1B1 supersomes = target: T1, cyt P450 1B1 supersomes (Homo sapiens, UniProt Q16678); test: ECL enzyme/DNA array DNA damage rate, cyt P450 1B1; type: biochemical; conditions: pH 7.4
T1 sequence (Q16678 1-543): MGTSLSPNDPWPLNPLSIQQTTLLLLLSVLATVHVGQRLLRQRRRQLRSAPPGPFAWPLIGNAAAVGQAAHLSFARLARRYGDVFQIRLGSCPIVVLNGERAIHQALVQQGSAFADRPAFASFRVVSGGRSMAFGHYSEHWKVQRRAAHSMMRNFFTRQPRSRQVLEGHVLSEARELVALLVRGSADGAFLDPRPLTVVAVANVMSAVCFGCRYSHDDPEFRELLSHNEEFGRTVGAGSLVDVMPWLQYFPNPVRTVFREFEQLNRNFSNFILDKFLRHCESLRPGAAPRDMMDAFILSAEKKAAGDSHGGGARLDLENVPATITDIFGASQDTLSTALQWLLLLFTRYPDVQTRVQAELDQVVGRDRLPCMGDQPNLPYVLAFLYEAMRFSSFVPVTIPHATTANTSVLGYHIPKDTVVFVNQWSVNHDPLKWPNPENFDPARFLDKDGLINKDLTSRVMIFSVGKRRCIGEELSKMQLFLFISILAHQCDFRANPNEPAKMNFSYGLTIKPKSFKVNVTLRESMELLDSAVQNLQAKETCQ

rodent = conditions: chronic dietary exposure, ref [40],[49]; cited from earlier work
[1] = test system: human organ microsomes, cytosols and cyt P450 supersomes; test: Biocolloid reactor bead LC-MS/MS DNA adducts, comparison across enzyme sources; conditions: 250 μM 2-AAF, 4 h; all enzyme sources with cytosol
[2] = test system: human organ tissue enzymes (liver, lung, intestine, kidney microsomes with or without cytosol); test: ECL enzyme/DNA array DNA damage rate, comparison across organ enzymes; conditions: pH 7.4
cyt P450 1A2 supersomes = target: T2, cyt P450 1A2 supersomes (Homo sapiens, UniProt P05177); test: ECL enzyme/DNA array DNA damage rate, cyt P450 1A2; type: biochemical; conditions: 250 μM 2-AAF, pH 7.4; cyt P450 1A2 compared to cyt P450s 2A6, 3A5 and 1B1
T2 sequence (P05177 2-516 limits assumed): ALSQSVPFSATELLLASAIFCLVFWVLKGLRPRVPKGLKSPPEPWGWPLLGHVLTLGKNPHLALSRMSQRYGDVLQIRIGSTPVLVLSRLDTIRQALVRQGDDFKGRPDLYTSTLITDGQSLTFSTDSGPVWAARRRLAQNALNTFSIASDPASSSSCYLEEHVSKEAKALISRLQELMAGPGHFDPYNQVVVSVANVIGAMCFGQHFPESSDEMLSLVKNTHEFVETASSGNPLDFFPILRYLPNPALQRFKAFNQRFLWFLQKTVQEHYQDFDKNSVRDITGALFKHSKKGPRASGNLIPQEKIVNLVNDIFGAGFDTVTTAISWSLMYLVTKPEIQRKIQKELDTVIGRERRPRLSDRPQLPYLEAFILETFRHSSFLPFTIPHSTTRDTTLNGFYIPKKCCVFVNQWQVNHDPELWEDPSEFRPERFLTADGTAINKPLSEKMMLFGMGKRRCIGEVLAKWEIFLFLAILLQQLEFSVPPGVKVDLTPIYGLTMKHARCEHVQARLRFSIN

[3] = test system: human intestinal microsomes (HIM); test: Biocolloid reactor bead LC-MS/MS DNA adduct quantitation, HIM; type: biochemical; conditions: 250 μM 2-AAF, 4 h; organ comparison
mice = conditions: dietary administration, ref [61]; cited from earlier work
[4] = test system: cyt P450 supersomes (3A4, 2A6, 3A5) with or without cytosol; test: ECL enzyme/DNA array DNA damage rate, comparison across cyt P450 supersomes; type: biochemical, human; conditions: 1 mM styrene, pH 7.4; supersomes + cytosol vs supersomes

In the case of `CC(=O)Nc1ccc2c(c1)Cc1ccccc1-2` [2-AAF, 2-acetylaminofluorene], the “DNA adduct levels, liver vs bladder” value (male rats) is given as “higher levels of DNA adduct levels in liver than in bladder”, the “DNA damage-related activity (ECL array)” value (cyt P450 1B1 supersomes; 250 μM 2-AAF) is given as “small” and the “formation of tumors, organ order” value (rodent) is given as “liver > intestine > kidney”. The “adduct 9 in the presence of cytosol enzymes (LC-MS/MS)” value [1] was “not detected”, the “order of DNA damage rates across organs (ECL array)” value ([2]; 250 μM 2-AAF, microsomes with cytosolic enzymes included) was “kidney > intestine > lung > liver” and the “relative DNA damage rate (ECL array)” value (cyt P450 1A2 supersomes) was “significantly larger rate of DNA damage”. The “total levels of adducts 8 and 9 (LC-MS/MS)” value [3] was “highest for intestine” and the “DNA adduct levels, bladder vs liver” value (mice) was “higher DNA adduct levels in bladder than in liver”.
With `C=Cc1ccccc1` [styrene] the “DNA damage activity (ECL array)” value (cyt P450 1B1 supersomes; 1 mM styrene) was “low activity”, the “change of rate of DNA damage upon using microsomes and cytosol (ECL array)” value ([2]; 1 mM styrene, microsomes + cytosol vs microsomes) was “halved” and the “decrease of rate of DNA damage when using cyt P450 supersomes and cytosol (ECL array)” value [4] was 10 fold.
